From ChEMBL document CHEMBL1641581, “Ring A-seco triterpenoids with antibacterial activity from Dysoxylum hainanense” (2011)
In brackets after ≈: the same amount, converted by molar mass.

Experiments:
Format in all cases: functional
Nannizzia gypsea = assay: Antifungal activity against Microsporum gypseum ATCC 14683 assessed as inhibition of visible growth
Staphylococcus aureus = assay: Antibacterial activity against Staphylococcus aureus ATCC 25923 assessed as inhibition of visible growth
Escherichia coli = assay: Antibacterial activity against Escherichia coli ATCC 25922 assessed as inhibition of visible growth
Shigella flexneri = assay: Antibacterial activity against Shigella flexneri ATCC 12022 assessed as inhibition of visible growth
Trichophyton rubrum = assay: Antifungal activity against Trichophyton rubrum ATCC 10218 assessed as inhibition of visible growth
Candida albicans = assay: Antifungal activity against Candida albicans ATCC 1600 assessed as inhibition of visible growth
Pseudomonas aeruginosa = assay: Antibacterial activity against Pseudomonas aeruginosa ATCC 14502 assessed as inhibition of visible growth
[1] = test system: Staphylococcus epidermidis; assay: Antibacterial activity against Staphylococcus epidermidis ATCC 12228 assessed as inhibition of visible growth
Bacillus subtilis = assay: Antibacterial activity against Bacillus subtilis ATCC 6633 assessed as inhibition of visible growth
Micrococcus luteus = assay: Antibacterial activity against Micrococcus luteus ATCC 9341 assessed as inhibition of visible growth
Saccharomyces = assay: Antifungal activity against Saccharomyces sake ATCC 26421 assessed as inhibition of visible growth

| SMILES | MIC (Nannizzia gypsea) [µg/mL] | MIC (Staphylococcus aureus) [µg/mL] | MIC (Escherichia coli) [µg/mL] | MIC (Shigella flexneri) [µg/mL] | MIC (Trichophyton rubrum) [µg/mL] | MIC (Candida albicans) [µg/mL] | MIC (Pseudomonas aeruginosa) [µg/mL] | MIC [1] [µg/mL] | MIC (Bacillus subtilis) [µg/mL] | MIC (Micrococcus luteus) [µg/mL] | MIC (Saccharomyces) [µg/mL] |
| --- | --- | --- | --- | --- | --- | --- | --- | --- | --- | --- | --- |
| C=CCc1ccc(O)c(-c2cc(CC=C)ccc2O)c1 [MAGNOLOL] |  | 25 (≈ 93.9 µM) | > 50 | > 50 |  |  | > 50 | 12.5 (≈ 46.9 µM) | 12.5 (≈ 46.9 µM) | 12.5 (≈ 46.9 µM) |  |
| C=C(C)[C@@H]1CC[C@]2(C)[C@H](CC[C@@H]3[C@H]4[C@H](C(C)(C)O)CC[C@]4(C)CC[C@]32C)[C@@]1(C)CCC(=O)O [DYSOXYHAINIC ACID H] | > 50 | > 50 | > 50 | > 50 | > 50 | > 50 | > 50 | > 50 | 3.12 (≈ 6.8 µM) | 3.12 (≈ 6.8 µM) | > 50 |
| CC1(C)CC[C@]2(C)CC[C@]3(C)C(=CC=C4[C@@](C)(CCC(=O)O)[C@H](C(C)(C)O)CC[C@]43C)[C@@H]2C1 [DYSOXYHAINIC ACID J] | > 50 | > 50 | > 50 | > 50 | > 50 | > 50 | > 50 | > 50 | > 50 | > 50 | > 50 |

Results, then the compound that gave them:

| MIC (Nannizzia gypsea) [µg/mL] | MIC (Staphylococcus aureus) [µg/mL] | MIC (Escherichia coli) [µg/mL] | MIC (Shigella flexneri) [µg/mL] | MIC (Trichophyton rubrum) [µg/mL] | MIC (Candida albicans) [µg/mL] | MIC (Pseudomonas aeruginosa) [µg/mL] | MIC [1] [µg/mL] | MIC (Bacillus subtilis) [µg/mL] | MIC (Micrococcus luteus) [µg/mL] | MIC (Saccharomyces) [µg/mL] | SMILES |
| --- | --- | --- | --- | --- | --- | --- | --- | --- | --- | --- | --- |
| > 50 | > 50 | > 50 | > 50 | > 50 | > 50 | > 50 | > 50 | > 50 | > 50 | > 50 | CC(C)(C(=O)O)[C@@H]1CC[C@]2(C)[C@H](CC=C3[C@@H]4C[C@@](C)(C(=O)O)CC[C@]4(C)CC[C@]32C)[C@@]1(C)C(=O)O [DYSOXYHAINIC ACID F] |
| 12.5 (≈ 28.9 µM) |  |  |  | 25 (≈ 57.8 µM) | 6.25 (≈ 14.5 µM) |  |  |  |  | 12.5 (≈ 28.9 µM) | COC(=O)C1=CC[C@@]23CC[C@@H]([C@@](C)(/C=C/C=C(\C)C(=O)O)OC2=O)[C@@]3(OC(C)=O)CC1 [PSEUDOLARIC ACID B] |
| > 50 | > 50 | > 50 | > 50 | > 50 | > 50 | > 50 | 3.12 (≈ 6.44 µM) | 3.12 (≈ 6.44 µM) | 3.12 (≈ 6.44 µM) | > 50 | C=C(C)[C@@H]1CC[C@]2(C)[C@H](CC=C3[C@@H]4C[C@@](C)(C(=O)O)CC[C@]4(C)CC[C@]32C)[C@@]1(C)CCC(=O)OC [DYSOXYHAINIC ACID G] |
| > 50 | > 50 | > 50 | > 50 | > 50 | > 50 | > 50 | 12.5 (≈ 27.2 µM) | 1.56 (≈ 3.4 µM) | > 50 | > 50 | CC1(C)CC[C@]2(C)CC[C@]3(C)C(=CC[C@@H]4[C@@](C)(CCC(=O)O)[C@H](C(C)(C)O)CC[C@]43C)[C@@H]2C1 [DYSOXYHAINIC ACID I] |
| > 50 | > 50 | > 50 | > 50 | > 50 | > 50 | > 50 | 12.5 (≈ 26.6 µM) | 6.25 (≈ 13.3 µM) | > 50 | > 50 | C=C(C)[C@@H]1CC[C@]2(C)[C@H](CC=C3[C@@H]4C[C@@](C)(C(=O)O)CC[C@]4(C)CC[C@]32C)[C@@]1(C)CCC(=O)O [KOETJAPIC ACID] |
